Data as given in US20090215777A1, “Pyrimidine Derivatives As HSP90 Inhibitors” (Astex Therapeutics Ltd., priority 2005, published 2009).

Biological target: T1, human Hsp90α N-terminal domain (Homo sapiens, UniProt P07900)
T1 construct: Cloning, expression, and purification of the Human Hsp90α N-terminal domain were performed according to published methods; made in house
Test: Isothermal titration calorimetry (ITC)
Format: binding
Conditions: 25 mM Tris, 100 mM NaCl, 1 mM MgCl2, 1 mM TCEP, 5% DMSO, pH 7.4
Description: The ability of the compounds of the invention to bind to human Hsp90 proteins was determined using isothermal titration calorimetry.
Isothermal titration calorimetry (ITC) experiments were performed with a VP-ITC titration calorimeter (Microcal Inc., Northampton, Mass., USA). […] All solutions were filtered and degassed prior to a titration being carried out. The enthalpy change resulting from each injection of ligand was obtained through integration of the calorimetric signal. Data were analysed using Origin 7.0 (Microcal Software Inc., Northampton, Mass.). Heats of dilution were estimated using the final injections of each individual titration and subtracted before data fitting. Different ITC experimental formats were employed in order to obtain compound dissociation constants (Kd's) over a wide range of affinities. […] In this type of experiment the stoichiometry parameter (N) was locked at 1 for data fitting.

Row | Kd | SMILES
1 | < 1000 nM | CN(C)CCCOc1cccc(Cl)c1-c1cc(Cl)nc(N)n1 [Example 54]
2 | < 10000 nM | COc1cccc(OCCN2CCCCC2)c1-c1cc(Cl)nc(N)n1 [Example 52, 4-Chloro-6-[2-methoxy-6-(2-piperidin-1-yl-ethoxy)-phenyl]-pyrimidin-2-ylamine]
3 | < 30000 nM | COc1ccccc1-c1cc(C(F)F)nc(N)n1 [Example 58, 4-Difluoro-methyl-6-(2-methoxy-phenyl)-pyrimidin-2-ylamine]
4 | < 10000 nM | Nc1ncc(-c2cn[nH]c2)c(-c2ccc(Cl)cc2Cl)n1 [Example 63, 4-(2,4-Dichloro-phenyl)-5-(1H-pyrazol-4-yl)-pyrimidin-2-ylamine]
5 | < 1000 nM | CCOC(=O)C(C)Oc1ccc(-c2cc(Cl)nc(N)n2)c(Cl)c1 (stereo not shown) [Example 67]
6 | < 10000 nM | Nc1nccc(-c2ccc(Cl)cc2Cl)n1 [Example 60, 4-(2,4-Dichloro-phenyl)-pyrimidin-2-ylamine]
7 | < 1000 nM | CCOc1ccc(-c2cc(Cl)nc(N)n2)c(Cl)c1 [Example 29]
8 | < 30000 nM | Nc1ncc(Br)c(-c2ccc(Cl)cc2Cl)n1 [Example 62, 5-Bromo-4-(2,4-dichloro-phenyl)-pyrimidin-2-ylamine]
9 | < 1000 nM | CC(C)(C)OC(=O)N1CCC(COC(=O)C(C)(C)Oc2ccc(-c3cc(Cl)nc(N)n3)c(Cl)c2)CC1 [Example 82, 4-{2-[4-(2-Amino-6-chloro-pyrimidin-4-yl)-3-chloro-phenoxy]-2-methyl-propionyloxy-methyl}-piperidine-1-carboxylic acid tert-butyl ester]
10 | < 1000 nM | Nc1nc(Cl)cc(-c2cc(OCc3ccccc3)c(Cl)cc2Cl)n1 [Example 78, 4-(5-Benzyloxy-2,4-dichloro-phenyl)-6-chloro-pyrimidin-2-yl-amine]
11 | < 1000 nM | CC(C)Oc1ccc(-c2cc(Cl)nc(N)n2)c(Cl)c1 [Example 65, 4-Chloro-6-(2-chloro-4-isopropoxy-phenyl)-pyrimidin-2-ylamine]
12 | < 1000 nM | COc1ccc(-c2cc(Cl)nc(N)n2)c(Cl)c1 [Example 73, 4-Chloro-6-(2-chloro-4-methoxy-phenyl)-pyrimidin-2-ylamine]
13 | < 1000 nM | COc1c(CC(C)(C)C)cccc1-c1cc(Cl)nc(N)n1 [Example 71, 4-Chloro-6-[3-(2,2-dimethyl-propyl)-2-methoxy-phenyl]-pyrimidin-2-yl-amine]
14 | < 1000 nM | Cc1cccc(-c2cc(Cl)nc(N)n2)c1Cl [Example 76, 4-Chloro-6-(2-chloro-3-methyl-phenyl)-pyrimidin-2-yl-amine]
15 | < 1000 nM | Nc1nc(Cl)cc(-c2ccc(Cl)cc2Cl)n1 [Example 30, 4-Chloro-6-(2,4-dichloro-phenyl)-pyrimidin-2-yl-amine]
16 | < 1000 nM | COc1ccc(Cl)c(-c2cc(Cl)nc(N)n2)c1 [Example 49, 4-Chloro-6-(2-chloro-5-methoxy-phenyl)-pyrimidin-2-ylamine]
17 | < 1000 nM | COc1cccc(OCC2CCOCC2)c1-c1cc(Cl)nc(N)n1 [Example 21, 4-Chloro-6-[2-methoxy-6-(tetrahydro-pyran-4-yl-methoxy)-phenyl]-pyrimidin-2-yl-amine]
18 | < 10000 nM | CCOc1ccc2ccccc2c1-c1cc(Cl)nc(N)n1 [Example 44, 4-Chloro-6-(2-ethoxy-naphthalen-1-yl)-pyrimidin-2-ylamine]
19 | < 1000 nM | Nc1nc(Cl)cc(-c2ccc(O)cc2Cl)n1 [Example 64, 4-(2-Amino-6-chloro-pyrimidin-4-yl)-3-chloro-phenol]
20 | < 1000 nM | Nc1nc(Cl)cc(-c2cc(OCCN3CCOCC3)c(Cl)cc2Cl)n1 [Example 80, 4-Chloro-6-[2,4-dichloro-5-(2-morpholin-4-yl-ethoxy)-phenyl]-pyrimidin-2-yl-amine]
21 | < 1000 nM | CCN(CC)CCOc1cc(-c2cc(Cl)nc(N)n2)c(Cl)cc1Cl [Example 79, 4-Chloro-6-[2,4-dichloro-5-(2-diethylamino-ethoxy)-phenyl]-pyrimidin-2-yl-amine]
22 | < 1000 nM | COc1cccc(OC)c1-c1cc(Cl)nc(N)n1 [Example 4, 4-Chloro-6-(2,6-dimethoxy-phenyl)-pyrimidin-2-ylamine]

Row | Kd | SMILES
23 | < 1000 nM | COc1cccc(OCCN2CCOCC2)c1-c1cc(Cl)nc(N)n1 [Example 48, 4-Chloro-6-[2-methoxy-6-(2-morpholin-4-yl-ethoxy)-phenyl]-pyrimidin-2-ylamine]
24 | < 1000 nM | CC(C#N)Oc1ccc(-c2cc(Cl)nc(N)n2)c(Cl)c1 (stereo not shown) [Example 75, 2-[4-(2-Amino-6-chloro-pyrimidin-4-yl)-3-chloro-phenoxy]-propionitrile]
25 | < 10000 nM | CN(C)CCOc1ccc(-c2cc(Cl)nc(N)n2)c(Cl)c1 [Example 74, 4-Chloro-6-[2-chloro-4-(2-dimethylamino-ethoxy)-phenyl]-pyrimidin-2-yl amine]
26 | < 1000 nM | COc1cccc(-c2cc(Cl)nc(N)n2)c1Cl [Example 69, 4-Chloro-6-(2-chloro-3-methoxy-phenyl)-pyrimidin-2-yl-amine]
27 | < 1000 nM | CCOC(=O)COc1ccc(-c2cc(Cl)nc(N)n2)c(Cl)c1 [Example 66, [4-(2-Amino-6-chloropyrimidin-4-yl)-3-chloro-phenoxy]-acetic acid ethyl ester]
28 | < 1000 nM | COc1cccc(-c2cc(Cl)nc(N)n2)c1OC [Example 70, 4-Chloro-6-(2,3-dimethoxy-phenyl)-pyrimidin-2-yl-amine]
29 | < 1000 nM | COc1ccc2ccccc2c1-c1cc(Cl)nc(N)n1 [Example 51, 4-Chloro-6-(2-methoxy-naphthalen-1-yl)-pyrimidin-2-ylamine]
30 | < 1000 nM | COc1cc(Cl)cc(Cl)c1-c1cc(Cl)nc(N)n1 [Example 59, 4-Chloro-6-(2,4-dichloro-6-methoxy-phenyl)-pyrimidin-2-ylamine]
31 | < 1000 nM | Nc1nc(Cl)cc(-c2ccncc2Cl)n1 [Example 50, 4-Chloro-6-(3-chloro-pyridin-4-yl)-pyrimidin-2-ylamine]
32 | < 1000 nM | COc1ccc(-c2c(OC)ccc(Br)c2OC)c(OC)c1-c1cc(Cl)nc(N)n1 [Example 46, 4-(3′-Bromo-2,4,2′,6′-tetramethoxy-biphenyl-3-yl)-6-chloro-pyrimidin-2-ylamine]
33 | < 1000 nM | Nc1nc(Cl)cc(-c2cc(O)c(Cl)cc2Cl)n1 [Example 77, 5-(2-Amino-6-chloro-pyrimidin-4-yl)-2,4-dichloro-phenol]
34 | < 1000 nM | CC(C)(C)OC(=O)NCCCOc1cccc(Cl)c1-c1cc(Cl)nc(N)n1 [Example 53, {3-[2-(2-Amino-6-chloro-pyrimidin-4-yl)-3-chloro-phenoxy]-propyl}-carbamic acid tert-butyl ester]
35 | < 1000 nM | CN(C)CCOc1cccc(Cl)c1-c1cc(Cl)nc(N)n1 [Example 55, 4-Chloro-6-[2-chloro-6-(2-dimethylamino-ethoxy)-phenyl]-pyrimidin-2-yl amine]
36 | < 1000 nM | CC(C)(C)OC(=O)NCCOc1cccc(Cl)c1-c1cc(Cl)nc(N)n1 [Example 57]
37 | < 1000 nM | NC(=O)COc1cc(-c2cc(Cl)nc(N)n2)c(Cl)cc1Cl [Example 81, 2-[5-(2-Amino-6-chloro-pyrimidin-4-yl)-2,4-dichloro-phenoxy]-acetamide]
38 | < 1000 nM | COc1cc(-c2cc(Cl)nc(N)n2)c(Cl)cc1Cl [Example 61, 4-Chloro-6-(2,4-dichloro-5-methoxy-phenyl)-pyrimidin-2-ylamine]
39 | < 1000 nM | CC(C)(Oc1ccc(-c2cc(Cl)nc(N)n2)c(Cl)c1)C(=O)OCC1CCNCC1 [Example 83, 2-[4-(2-Amino-6-chloro-pyrimidin-4-yl)-3-chloro-phenoxy]-2-methyl-prop-ionic acid piperidin-4-ylmethyl ester]
40 | < 1000 nM | NCCOc1cccc(Cl)c1-c1cc(Cl)nc(N)n1 [Example 56, 4-[2-(2-Amino-ethoxy)-6-chloro-phenyl]-6-chloro-pyrimidin-2-yl-amine]
41 | < 1000 nM | CCOC(=O)C(C)(C)Oc1ccc(-c2cc(Cl)nc(N)n2)c(Cl)c1 [Example 68, 2-[4-(2-Amino-6-chloro-pyrimidin-4-yl)-3-chloro-phenoxy]-2-methyl-propionic acid ethyl ester]
42 | < 1000 nM | COc1cc(OC)c(-c2cc(Cl)nc(N)n2)c(OC)c1 [Example 27, 4-Chloro-6-(2,4,6-trimethoxy-phenyl)-pyrimidin-2-yl-amine]
43 | < 10000 nM | COc1ccc(-c2ccccc2)c(OC)c1-c1cc(Cl)nc(N)n1 [Example 45, 4-Chloro-6-(2,4-dimethoxy-biphenyl-3-yl)-pyrimidin-2-ylamine]
44 | < 1000 nM | CC(C)(C)Cc1cccc(-c2cc(Cl)nc(N)n2)c1Cl [Example 72, 4-Chloro-6-[2-chloro-3-(2,2-dimethyl-propyl)phenyl]-pyrimidin-2-yl-amine]

Row | SMILES | Kd
45 | COc1cccc(OC)c1-c1cc(C)nc(N)n1 [Example 1, 4-(2,6-Dimethoxy-phenyl)-6-methyl-pyrimidin-2-ylamine] | < 10000 nM
46 | COc1cccc(OCC(C)C)c1-c1cc(Cl)nc(N)n1 [Example 47, 4-Chloro-6-(2-isobutoxy-6-methoxy-phenyl)-pyrimidin-2-ylamine] | < 1000 nM
